For this experiment, the system named is cerebellar granule cells (CGC). The experiment in a line: Antiapoptotic capacity (rescue) in cerebellar granule cells induced into apoptosis by cytosine arabinoside (CGC assay). The experiment is classed as cell-based, Wistar rat. The text has this: In Vitro Protocol for Assessing the Antiapoptotic Capacity of Various Compounds in Cerebellar Granule Cells
Cultures of cerebellar granule cells (CGC) can be induced into apoptosis by the addition of a high concentration of cytosine arabinoside (AraC). It has been shown that this is a p53 dependent apoptosis. We have measured the antiapoptotic effect of some amino acids, amino esters, amino phosphonic acids, amino nitriles and amino tetrazoles using this system.
Cultures of CGC were obtained from 6-8 day old Wistar rat pups. Cultures were grown on glass in 35 mm petri dishes for three days and then used for experiments. Aliquots (20 ul) of drug solutions (AraC, anti-apoptotic drugs, drug vehicles) were added to the medium of the culture. 24 Hours later the cultures were fixed with FAM, and stained with bis-benzamide. Normal and apoptotic nuclei were counted to a total of 90-120 cells per culture.

Setting [1] is: compound 10^−6 M, AraC 300 uM-induced apoptosis, 24 hours.
Setting [2] is: compound 10^−9 M, AraC 300 uM-induced apoptosis, 24 hours.
Setting [3] is: compound 10^−12 M, AraC 300 uM-induced apoptosis, 24 hours.
The mark [4] stands for this setting: overall over 10^−6, 10^−9, 10^−12 M.

Counter-ions that a name gives are not always drawn.

For `CCCCCC(C)NCCc1nnn[nH]1` (stereo in doubt) [R-2-Heptyl (Amino Tetrazoles), (R)-2-(2-Heptylamino)ethane-5-tetrazole hydrochloride], the “Rescue by Amino Tetrazoles in the CGC Assay, 10^−6 M” value under setting [1] is reported as “R”. In addition, the “Rescue by Amino Tetrazoles in the CGC Assay, 10^−9 M” value under setting [2] is listed as “R”. Under setting [3], the “Rescue by Amino Tetrazoles in the CGC Assay, 10^−12 M” value is given as “R”. Further, under setting [4], the “Rescue by Amino Tetrazoles in the CGC Assay, Rescue (overall yes/no)” value is “yes”.
In the case of `CCCCCC(C)NCCC(=O)O` (stereo in doubt) [R-2-Heptyl (B-Alanines), (R)-3-(2-Heptylamino)propionic acid hydrochloride], under setting [2], the “Rescue by Amino Acids and Esters in the CGC Assay, 10^−9 M” value is reported as “R”. In addition, under setting [3], the “Rescue by Amino Acids and Esters in the CGC Assay, 10^−12 M” value is “R”. Further, under setting [4], the “Rescue by Amino Acids and Esters in the CGC Assay, Rescue (overall yes/no)” value is listed as “yes”.
For the compound `CCCCCC(C)NCC(=O)O` (stereo in doubt) [R-2-Heptyl (Glycines), (R)-2-(2-Heptylamino)acetic acid hydrochloride], under setting [4], the “Rescue by Amino Acids and Esters in the CGC Assay, Rescue (overall yes/no)” value is listed as “no”.
As to `CCCCCC(C)NCCC#N` (stereo in doubt) [R-2-Heptyl (Propionitriles), (R)-3-(2-Heptylamino)propionitrile hydrochloride], the “Rescue by Amino Nitriles in the CGC Assay, 10^−9 M” value (“Rescue by Amino Nitriles … 10^−9 M” for short) under setting [2] is on record as “R”. Moreover, the “Rescue by Amino Nitriles in the CGC Assay, 10^−12 M” value under setting [3] is recorded as “R”. Besides, the “Rescue by Amino Nitriles in the CGC Assay, Rescue (overall yes/no)” value (shortened to “Rescue by Amino Nitriles … (overall yes/no)”) under setting [4] is given as “yes”.
`CCCCCC(C)N(C)CCC#N` (stereo in doubt) [R-2-Heptyl-N-methyl (Propionitriles), (R)-3-(2-Heptylmethylamino)propionitrile hydrochloride]: the “Rescue by Amino Nitriles … 10^−9 M” value under setting [2] is listed as “R”. Moreover, the “Rescue by Amino Nitriles … (overall yes/no)” value under setting [4] is “yes”.
For the compound `CCCCCC(C)NCC#N` (stereo in doubt) [R-2-heptyl (Acetonitriles), (R)-2-(2-Heptylamino)acetonitrile hydrochloride], the “Rescue by Amino Nitriles … (overall yes/no)” value under setting [4] was “no”.
Regarding `CCCCCCNCC#N.Cl` [1-Hexyl (Acetonitriles), 2-(1-Hexylamino)acetonitrile hydrochloride], the “Rescue by Amino Nitriles … 10^−9 M” value under setting [2] is “R”. Besides, the “Rescue by Amino Nitriles in the CGC Assay, 10^−12 M” value under setting [3] was “R”. For the same compound, the “Rescue by Amino Nitriles … (overall yes/no)” value under setting [4] was “yes”.
Take `CCCCCCNCCP(=O)(O)O.Cl` [1-Hexyl (Amino Phosphonic Acids), 2-(1-Hexylamino)ethanephosphonic acid hydrochloride]: the “Rescue by Amino Phosphonic Acids in the CGC Assay, Rescue (overall yes/no)” value under setting [4] was “no”.
With `CCCCCCNCCC(=O)OC` [1-Hexyl (B-Alaninates), Methyl 3-(1-hexylamino)propionate hydrochloride], the “Rescue by Amino Acids and Esters in the CGC Assay, 10^−9 M” value under setting [2] is reported as “R”. In addition, the “Rescue by Amino Acids and Esters in the CGC Assay, 10^−12 M” value under setting [3] is reported as “R”. For the same compound, the “Rescue by Amino Acids and Esters in the CGC Assay, Rescue (overall yes/no)” value under setting [4] is on record as “yes”.
Take `CCCCCCNCC(=O)O.Cl` [1-Hexyl (Glycines), 2-(1-Hexylamino)acetic acid hydrochloride]: the “Rescue by Amino Acids and Esters in the CGC Assay, 10^−9 M” value under setting [2] was “R”. Further, the “Rescue by Amino Acids and Esters in the CGC Assay, Rescue (overall yes/no)” value under setting [4] was “yes”.
Turning to `COC(=O)CCNC(C)C.Cl` [2-Propyl (B-Alaninates), Methyl 3-(2-propylamino)propionate hydrochloride], under setting [4], the “Rescue by Amino Acids and Esters in the CGC Assay, Rescue (overall yes/no)” value is recorded as “no”.
On to `CC(C)NCC(=O)O.Cl` [2-Propyl (Glycines), 2-(2-Propylamino)acetic acid hydrochloride], for which the “Rescue by Amino Acids and Esters in the CGC Assay, 10^−6 M” value under setting [1] is “R”. The “Rescue by Amino Acids and Esters in the CGC Assay, Rescue (overall yes/no)” value under setting [4] was “yes”.
`CC(C)NCCC#N.Cl` [2-Propyl (Propionitriles), 3-(2-Propylamino)propionitrile hydrochloride]: the “Rescue by Amino Nitriles … (overall yes/no)” value under setting [4] is “no”.
Take `CC(C)N(C)CCC(=O)O` [2-Propyl-N-methyl (B-Alanines), 3-(2-Propylmethylamino)propionic acid]: the “Rescue by Amino Acids and Esters in the CGC Assay, 10^−6 M” value under setting [1] is “R”. The “Rescue by Amino Acids and Esters in the CGC Assay, 10^−9 M” value under setting [2] is recorded as “R”. For the same compound, under setting [4], the “Rescue by Amino Acids and Esters in the CGC Assay, Rescue (overall yes/no)” value is “yes”.

For the origin of these results see patent publication US6984754B1, “Aliphatic amino carboxylic and amino phosphonic acids amino nitriles and amino tetrazoles as cellular rescue agents” (University of Saskatchewan Technologies Inc., priority 1998, dated 2006).
